Values quoted from earlier work in US20170333571A1, “Targeted Delivery Platform for Delivery of Therapeutics” (The Regents of the University of California, priority 2014, published 2017).
No end group written: not given here.

System: colitis-induced inflammation
Details: exogenous administration, rats and mice

Ucn1: small peptide (~38 aa), Urocortin 1 (DNPSLSIDLTFHLLRTLLELARTQSQRERAEQNRIIFDSV; ends and bridges not checked; also: 5FAM label, position not given here (in delivery test); UniProt P55089 83-122, looked up)
colitis-induced inflammation: reduces colitis-induced inflammation
